Assay results as given in patent publication US20240142474A1, “Opsins as Chemosensory Receptors and Related Methods” (The Regents of the University of California, priority 2021, published 2024).
“Also recorded” adds a separate entry of the source.

Assays:
[1] = molecular target: T1, OPN3 (Homo sapiens, UniProt Q9H1Y3); assay: Calcium flux GPCR activation assay with Fluo-8 dye, opsin-expressing HEK293T cells, OPN3; format: cell-based; conditions: Fluo-8 calcium flux, data not shown
T1 construct: expressed in transfected cells; host or cells: HEK293T
T1 sequence (Q9H1Y3 whole entry): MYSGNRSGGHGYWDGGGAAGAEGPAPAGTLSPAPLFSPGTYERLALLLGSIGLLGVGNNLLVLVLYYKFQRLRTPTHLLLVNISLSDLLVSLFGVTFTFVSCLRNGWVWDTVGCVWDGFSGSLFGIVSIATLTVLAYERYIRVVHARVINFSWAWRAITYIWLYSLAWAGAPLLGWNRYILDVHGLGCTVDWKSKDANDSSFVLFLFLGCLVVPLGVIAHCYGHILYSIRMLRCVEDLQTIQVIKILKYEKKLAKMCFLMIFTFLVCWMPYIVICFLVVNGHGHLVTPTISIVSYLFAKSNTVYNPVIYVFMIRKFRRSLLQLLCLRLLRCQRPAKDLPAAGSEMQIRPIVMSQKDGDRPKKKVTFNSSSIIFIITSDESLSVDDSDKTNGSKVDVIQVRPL
Procedure: (§1) These foregoing TANTO results were further confirmed using a second, a calcium flux GPCR activation assay employing Fluo-8 dye, as follows. For this intracellular Ca^2+ measurement, opsin-expressing HEK293T cells were seeded onto 96-well plates (4×10^4 cells per well) in 100 μl of culture medium with reduced serum contents (0.5% of FBS) per well and incubated overnight under standard culture conditions. [Ca2+]i level was assessed the next day after stimulation with bitter compounds used at a different concentration with the SCREEN QUEST Fluo-8 No Wash Calcium Assay Kit (AAT Bioquest, Inc., Sunnyvale, CA, USA) according to the supplier's protocol. Calcium flux was monitored simultaneously by the change in fluorescence (Ex/Em=490/520 nm) following stimulation and with respect to the background fluorescence. [Ca^2+]i was monitored for a period of three minutes, starting before the addition of compounds to the wells and continuing during measurement of the fluorescent signal following cells' stimulation. The obtained fluorescence reads were normalized to the results obtained after stimulation of the cells with the compound solvent.

[2] = molecular target: T2, OPN3 (Mus musculus, UniProt Q9WUK7); assay: TANGO assay (beta-arrestin recruitment, luciferase reporter) in HTLA cells, OPN3; format: cell-based; conditions: 4 hours
T2 construct: expressed in transfected cells; host or cells: HTLA cells (HEK293 line with tTA-dependent luciferase reporter and beta-arrestin2-TEV fusion)
T2 sequence (Q9WUK7 whole entry, the tested form may be a part): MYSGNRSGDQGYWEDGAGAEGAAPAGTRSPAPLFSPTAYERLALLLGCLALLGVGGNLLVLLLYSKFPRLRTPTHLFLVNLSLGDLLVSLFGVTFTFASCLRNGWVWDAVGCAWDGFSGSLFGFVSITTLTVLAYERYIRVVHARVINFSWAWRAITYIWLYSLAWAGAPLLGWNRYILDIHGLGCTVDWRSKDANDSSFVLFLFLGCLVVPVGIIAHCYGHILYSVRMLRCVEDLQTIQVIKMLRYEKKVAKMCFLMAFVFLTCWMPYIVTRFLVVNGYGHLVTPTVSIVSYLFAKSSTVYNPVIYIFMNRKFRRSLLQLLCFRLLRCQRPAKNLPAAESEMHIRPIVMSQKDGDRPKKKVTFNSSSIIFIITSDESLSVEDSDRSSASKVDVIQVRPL
Excerpt: (§2) For example, in one implementation the chemosensory opsin activation detection element comprises a TANGO assay (Transcriptional Activation Following Arrestin Translocation), as known in the art, for example, as described by Kroeze et al., 2015. PRESTO-Tango as an open-source resource for interrogation the druggable human GPCRome. Nat Struct Mol Biol 22, 362-369. In the TANGO systems of the invention, a cell is engineered to express a chemosensory opsin in the form of a fusion protein, wherein the opsin fusion protein comprises an optional membrane trafficking signal (e.g. HA), an optional FLAG tag or like epitope to facilitate detection, and a transcriptional activator which induces the expression of a reporter gene, such as luciferase, wherein the transcriptional activator is joined to an intracellular portion of the opsin, for example, the […], by a cleavage sequence. The cells of the TANGO system are further engineered to express a second fusion protein comprising a beta-arrestin fused to a protease, for example, a TEV protease, wherein the protease is capable of cleaving the fusion protein at the cleavage site. The cells of the TANGO system are further engineered to express a reporter protein, e.g. luciferase, under the control of a transcriptional activator, for example, tetracycline-controlled transactivaor (tTA). Ligand binding to the opsin deployed in the TANGO system triggers a conformational change in the opsin that recruits the beta arrestin-protease fusion protein to the opsin, where proximity of the protease induces cleavage of the transcriptional activator, which trafficks to the nucleus and induces the expression of the reporter gene. The TANGO system advantageously allows direct quantification of opsin activation, independent of g protein activity.
(§3) Human transcriptomics data was mined to identify putative taste receptor proteins. […] However, the role of these opsins in taste perception has not been previously explored. TANGO detection elements employing each of these opsins, in both human and mouse isoforms, were created in HTLA cells (a HEK293 cell line stably expressing a tTA-dependent luciferase reporter and a β-arrestin2-TEV fusion gene), based on protocols in Kroeze et al., 2015. PRESTO-Tango as an open-source resource for interrogation of the druggable human GPCRome. Nat Struct Mol Biol 22, 362-369.
(§4) In the TANGO assay, the mouse opsin coding sequence with an N-terminal FLAG tag was synthesized. The construct was cloned into a TANGO vector (Addgene, Waterton MA) at the ClaI site (FLAG::opsin). The HTLA cells were transfected in a 6-well format with LIPOFECTAMINE 2000™ (Thermo Fisher Scientific, Inc, Waltham MA, USA) according to the manufacturer's instructions. 6-8 hours post transfection cells weret split 1:3 and the media was switched to DMEM+ 2.5% fetal bovine serum (Thermo Fisher Scientific Inc., Waltham MA, USA). Cells were allowed to grow for 48 hours before splitting the cells onto poly-L-lysine-coated 96-well clear, flat bottom white polystyrene plates in serum-free media. The next day, chemical solutions diluted in TANGO assay buffer (20 mM HEPES, 1× HBSS, pH 7.40) were added to the cells. After 4 hours, the medium and drug solutions were removed and replaced with […] per well of BRIGHTGLO™ reagent (Promega Corporation, Madison WI) diluted 20-fold with TANGO assay buffer. Plates were incubated for 20 minutes at room temperature in the dark before measuring luminescence with a plate reader (Molecular Devices, iD3). The normalized response was calculated using following formula: RLU (relative luminescence units)=test compound RLU−average vehicle control RLU.

[3] = molecular target: T3, OPN1SW (Homo sapiens, UniProt P03999); assay: Calcium flux GPCR activation assay with Fluo-8 dye, opsin-expressing HEK293T cells, OPN1SW; format: cell-based; conditions: Fluo-8 calcium flux, data not shown
T3 construct: expressed in transfected cells; host or cells: HEK293T
T3 sequence (P03999 1-345): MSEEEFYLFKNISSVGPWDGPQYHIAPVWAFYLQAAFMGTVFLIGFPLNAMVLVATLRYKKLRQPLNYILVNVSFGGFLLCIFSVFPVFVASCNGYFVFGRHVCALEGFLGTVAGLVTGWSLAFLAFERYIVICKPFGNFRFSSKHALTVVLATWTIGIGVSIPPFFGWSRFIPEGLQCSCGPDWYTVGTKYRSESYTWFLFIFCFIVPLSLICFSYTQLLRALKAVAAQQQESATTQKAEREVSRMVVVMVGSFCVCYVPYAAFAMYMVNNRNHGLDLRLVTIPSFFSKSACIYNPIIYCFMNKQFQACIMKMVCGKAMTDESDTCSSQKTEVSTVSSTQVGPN
Procedure: as §1

[4] = molecular target: T4, OPN1SW (Mus musculus, UniProt P51491); assay: TANGO assay (beta-arrestin recruitment, luciferase reporter) in HTLA cells, OPN1SW; format: cell-based; conditions: 4 hours
T4 construct: expressed in transfected cells; host or cells: HTLA cells (HEK293 line with tTA-dependent luciferase reporter and beta-arrestin2-TEV fusion)
T4 sequence (P51491 1-346): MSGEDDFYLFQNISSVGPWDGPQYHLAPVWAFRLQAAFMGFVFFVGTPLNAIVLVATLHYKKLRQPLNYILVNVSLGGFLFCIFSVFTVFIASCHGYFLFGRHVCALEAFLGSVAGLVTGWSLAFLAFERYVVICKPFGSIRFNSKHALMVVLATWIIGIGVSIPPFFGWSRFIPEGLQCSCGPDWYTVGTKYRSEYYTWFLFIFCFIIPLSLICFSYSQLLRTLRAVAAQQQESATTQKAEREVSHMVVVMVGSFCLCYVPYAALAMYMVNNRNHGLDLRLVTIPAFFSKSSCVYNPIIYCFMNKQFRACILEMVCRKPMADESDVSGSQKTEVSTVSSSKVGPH
Excerpt: as §2, §3, §4

[5] = tested on: OPN3 knockout mice; assay: Mouse brief-access taste assay (lickometer), OPN3 knockout mice compared to wild type; format: in vivo; conditions: water restricted
Procedure: Knockout mice were obtained for OPN1SW and OPN3. Two independent OPN3 knockout mice lines were tested for reaction to naringin by a mouse taste preference assay. A Lickometer device (MS-160, Di Log Instruments, Inc.,Tallahassee, FL, USA) was used to train mice and then measure their licking responses to different tastants in brief-access trials. On a given trial, each sipper tube was filled with a solution and made available to a mouse via a small port that opened to a metal/plexiglass chamber housing the animal. The mouse chamber of the lickometer was modified for these studies by adding a plexiglass barrier that restricted the free movement of animals to an approximate 10 by 15 cm area facing the fluid access port. A computer running software that communicated with the lickometer recorded tongue contacts with the metal tip of the sipper tube during licking and the time intervals (precision=1 ms) between consecutive licks (inter-lick intervals). The amount of time that the sipper tube was available through the access port could be programmed and was controlled by the opening of a normally closed, computer-actuated shutter. This feature facilitated presentation of solutions to a mouse for only a few seconds to support measurements of brief-access licking behavior. By indexing initial licking responses to stimuli over short periods, brief-access procedures intend to focus on oral sensory influences and avoid any post-ingestive effect. Groups of three to four mice were run in these studies at one time. Groups always included equal numbers of mutant and wild-type mice to control for temporal factors.
Training. Mice were restricted from drinking water for 20-22 hours prior to the onset of training. During training, experimentally naive mice learned to receive fluid in the lickometer over a 3-day period. On the first and second day of training, mice were given 30 minutes free access to a single sipper tube of water to familiarize them with accessing fluid in the lickometer device. Each 30 minute period began when the mouse made its first lick on the sipper tube; mice were allowed 30 minutes to make their first lick. On the third day of training, mice were presented with 10 second presentations (i.e., trials) of water to familiarize them with receiving and consuming fluid under a brief-access procedure in the lickometer. On each trial, the shutter that blocked access to the sipper tube was opened and mice were given 10 seconds to lick, and lick data were recorded by the lickometer computer. […]
Testing. […] For studies, individual Opn3KO, Opn1swKO, Opn4KO, Opn5KO and wild-type mice were evaluated for brief-access licking responses with different agonists. […]

Compound	activation of calcium dye OPN3 detection elements [1]	activation of OPN3, fold-change from baseline luciferase signal vs. log concentration of tastant [2]	activation of OPN1SW, fold-change from baseline luciferase signal vs. log concentration of tastant [4]	further results
OC[C@H]1O[C@@H](Oc2ccc(O)cc2)[C@H](O)[C@@H](O)[C@@H]1O [arbutin]	significantly activated in a concentration dependent manner	activation of OPN3; also recorded: activated		
Cn1cnc2c1c(=O)[nH]c(=O)n2C [theobromine]			activated; also recorded: activation of OPN1SW	activation of calcium dye OPN1SW detection elements [3]: significantly activated in a concentration dependent manner
O=c1c(-c2ccc(O)cc2)coc2cc(O)cc(O)c12 [genistein]			activated	activation of calcium dye OPN1SW detection elements [3]: significantly activated in a concentration dependent manner; activation of OPN1SW, fold-change from baseline luciferase signal vs. log concentration of tastant ([4]; listed as genestein): activation of OPN1SW
CC1(C)O[C@H]2CC(=O)OC[C@]23[C@H]2CC[C@@]4(C)[C@H](c5ccoc5)OC(=O)[C@H]5O[C@]54[C@]2(C)C(=O)C[C@@H]13 [limonin]			activation of OPN1SW; also recorded: activated	activation of calcium dye OPN1SW detection elements [3]: significantly activated in a concentration dependent manner
CC1=CC(=O)[N-]S(=O)(=O)O1.[K+] [asulfame potassium]		activation of OPN3	activation of OPN1SW	
O=C(O[C@@H]1Cc2c(O)cc(O)cc2O[C@@H]1c1cc(O)c(O)c(O)c1)c1cc(O)c(O)c(O)c1 [epigallocatechin gallate]		activation of OPN3		
N#C[C@H](O[C@@H]1O[C@H](CO[C@@H]2O[C@H](CO)[C@@H](O)[C@H](O)[C@H]2O)[C@@H](O)[C@H](O)[C@H]1O)c1ccccc1 [amygdalin]	significantly activated in a concentration dependent manner	activation of OPN3; also recorded: activated		
OC[C@H]1O[C@@H](Oc2ccccc2)[C@H](O)[C@@H](O)[C@@H]1O [phe-β-Glu, Phenyl-β-D-glucopyranoside]	significantly activated in a concentration dependent manner	activated		activation of OPN3, fold-change from baseline luciferase signal vs. log concentration of tastant ([2]; listed as Phenyl-β-D-glucopyranoside): activation of OPN3
Oc1cc(O)c2c(c1)O[C@H](c1cc(O)c(O)c(O)c1)[C@H](O)C2 [Epigallocatechin]		activated OPN3		aversion to the bitter flavor (lick ratio), OPN3 knockout mice compared to wild type mice [5]: reduced aversion
catechin		activated OPN3; also recorded: activation of OPN3		aversion to the bitter flavor (lick ratio), OPN3 knockout mice compared to wild type mice [5]: reduced aversion
O=c1c(O)c(-c2ccc(O)c(O)c2)oc2cc(O)cc(O)c12 [quercetin]		activated OPN3; also recorded: activation of OPN3		aversion to the bitter flavor (lick ratio), OPN3 knockout mice compared to wild type mice [5]: reduced aversion
COc1ccc2c(c1OC)C(=O)O[C@@H]2[C@H]1c2c(cc3c(c2OC)OCO3)CCN1C [noscapine]	significantly activated in a concentration dependent manner	activation of OPN3; also recorded: activated		
O=c1c(O)c(-c2cc(O)c(O)c(O)c2)oc2cc(O)cc(O)c12 [myricetin]		activation of OPN3		
